Assays:
HER2− breast cancer = assay: I-SPY 2 TRIAL: pCR response of breast cancer patients treated with veliparib; assay type: in vivo, human
Text: Currently, treatment of Stage II/III breast cancer involves neoadjuvant treatment (pre-surgical) with drug regimens that may include therapies targeting specific molecular defects. Disclosed herein are novel methods for treatment of breast cancer comprising identifying biomarkers that predict response to therapeutic agents used in the pre-surgical stage of treatment of cancer. Subjects providing samples (pre-treatment biopsies) for studies described herein were characterized based on measurement of estrogen/hormone receptor (HR) and HER2 (c-erbB2), and were described by HER2−/HR−. HER2+/HR+. HER2+/HR−, HER2−/HR+ phenotypes. Response to treatment was determined by the amount of tumor shrinkage and a lack of appreciable tumor evident at surgery. […] This microarray allows for quantitative measurement of the amount of proteins and/or phosphorylated proteins in the tumor or cancerous cells from pretreatment sample, for example from biopsy specimens of women with Stage II/III breast cancer. […]
This example tested the hypothesis that the response to the PARP inhibitor, veliparib, was predicted by specific biomarkers. […] Various proteins were evaluated as biomarkers of veliparib response using reverse phase protein microarray (RPMA) data from pre-treatment laser capture microdissection (LCM) purified tumor epithelium. […]

breast cancer = assay: Bayesian analysis (MCMC simulation on I-SPY 2 data) of the predicted probability of Phase III success; assay type: in vivo, human
Text: Adaptive design trials are constructed on the basis of assigning patients to certain signature groups such as signature biomarker groups, the goal being to determine predictive probabilities of success in Phase III trials for various targeted therapeutics. In essence, the design trials provide data that facilitates the determination of which patient biomarker signatures respond to various regimens. A regimen would “graduate” from trial if probability of statistical significance in Phase III reaches 85% for any signature, provided that a minimum of 60 patients have been assigned to the regimen. Neratinib was one of 7 agents tested in the experimental arms of the ISPY-2 TRIAL to date.
Bayesian analysis was completed using the MCMC simulation based on I-SPY 2 data with the following model: pCR˜HR+HER2+biomarker+treatment+treatment*HR+treatment*HER2+treatment*biomarker. No multiple comparison adjustments were applied. The Bayesian analytical engine developed by Don Berry (Yee et al J Clin Oncol. 2012 Dec. 20; 30(36):4584-6), is a mathematical approach that evaluates the clinical performance of a drug (in this case, neratinib) in both the treatment arm (in this case tumor shrinkage estimates by size changes observed by MRI), coupled with complete pathological response (pCR) as measured as the final response determinant, and the response of the predicate therapy in the control arm. This evaluation determined success of a given therapy for a Phase III trial, and in this case, it was determined that phosphorylation of EGFR at Y1173 was not only statistically significant at predicting or assessing response to neratinib in all patients regardless of hormone receptor levels and HER2 levels (HER2+, HER2− and HR+ and HR−), but when patients with high levels of phosphorylated EGFR (Y1173) were added to the HR−/HER2+ subgroup, the prevalence of ‘biomarker-positive’ patients increased by 50%, while increasing the predicted probability of Phase III success to 90%. […]

Row | SMILES | clinical response (HER2− breast cancer; HER2−/HR− subtype) | complete pathological response (pCR) (HER2− breast cancer; women with both HR+ and HR− tumors) | Phase III success (predicted probability) (breast cancer; EGFR Y1173 used as a single marker, all patients) [%] | Phase III success (predicted probability) (breast cancer; HER2+/HR− status as measured by immunohistochemical methods) [%] | predicted probability of Phase III success (breast cancer; patients with high levels of phosphorylated EGFR (Y1173) added to the HR−/HER2+ subgroup) [%]
1 | C[C@]1(c2nc3c(C(N)=O)cccc3[nH]2)CCCN1 [veliparib] | statistically significant clinical response | pCR was observed |  |  | 
2 | CCOc1cc2ncc(C#N)c(Nc3ccc(OCc4ccccn4)c(Cl)c3)c2cc1NC(=O)/C=C/CN(C)C [neratinib] |  |  | 93 | 87 | 90
